In US12570665B2, “Compositions comprising fullerenyl mesochlorin nano-photosensitizers with covalently bound antibiotics and their uses in combination therapy” (priority 2019, dated 2026):

How the values were obtained:
MRSA (strain IQ0064) = type: cell-based, Staphylococcus aureus
Procedure: (§1) FIG. 3. (A) aPDT against vancomycin-resistant and sensitive strains of E. fecium (VSE). Log10 survival fractions of E. fecium (10^8 cells/mL) incubated for 30 min with 50-nM concentration of VCM-mPheZn-N5^+ (LC39, see Huang, L., Wang, M., Chiang, L. Y., Hamblin, M. R., et al. Photochem. Photobiol. Sci. 2018, 17, 638-651) by irradiation with increasing exposes of a 415-nm LED light. […] Irradiation was carried out with (C) the radiant exposure of 115 J/cm^2 at 660 nm (LED light, 40 mW/cm^2) and (D) the radiant exposure of 20 J/cm^2 at 405 nm (LED light, 24 mW/cm^2). All data were represented as login survival fractions as a function of both aPDI agent concentration and light wavelength/exposure, where the dashed red line in Panel Cd represents the detection limit of MRSA CFU. […] (E) Concentration dependent aPDI of MRSA (strain IQ0064) by ChlPd-(C70>)N10^+ (LC41) upon illumination at 115 J/cm^2 and 660-nm wavelength (40 mW/cm^2).
(§2) Bacterial strains: Two Gram-positive MRSA strains (IQ0064 and IB0004) and one Gram-negative Acinetobacter baumannii strain (AF0004) were studied. All of them are clinical isolates. MRSA IQ0064 was a multidrug-resistant strain isolated from wounded military personnel deployed to Iraq. According to a microbiology test, IQ0064 strain was resistant to ampicillin, cefazolin, cefoxitin, oxacillin, and penicillin. MRSA IB0004 was an isolate from a keratitis patient. A. baumannii AF0004 was a multidrug-resistant strain isolated from wounded military personnel deployed to Afghanistan. AF0004 was resistant to a panel of important antibiotics including amikacin, ampicillin, aztreonam, cefazolin, cefepime, cefoxitin, ceftazidime, ceftriaxone, cefuroxime, ciprofloxacin, gentamicin, imipenem, levofloxacin, meropenem, nitrofurantoin, tetracycline and trimethoprim-sulfamethoxazole.
Light source: Light was delivered topically using a noncoherent light source (LumaCare, Newport Beach, CA) that provided the full spectrum of visible light (400 to 800 nm). The system employed interchangeable filter probes and produced a uniform spot for illumination. We used a 660±15-nm filter probe. The irradiance of 40 mW/cm^2 was used throughout the study. The light power was routinely measured using a laser power meter (Fieldmate; Coherent, Portland, OR).
Antimicrobial photodynamic inactivation (aPDI) of bacteria: Bacterial suspensions were adjusted to 10^8 CFU/mL, inoculated to 96-well plates (200 μL/well), incubated with fullerenes at 6.25, 12.50, 18.75, and 25.00 μM concentrations for 1.0 h and then either left in dark or irradiated with 660 nm light at 115 J/cm^2. At the completion of each stage of illumination, the contents of the wells were well mixed before sampling. Aliquots (30 μL) were taken from each well to determine CFU. The aliquots were serially diluted 10-fold in phosphate-buffered saline (PBS) to give dilutions of 10^1 to 10^5 times in addition to the original concentration; then, 10 μL aliquots of each of the dilutions were streaked horizontally on square BHI plates. Plates were streaked in triplicate and incubated for 24 h at 37° C. in the dark to allow colony formation. Control groups included bacterial cells that were treated with light alone (no fullerene monoadducts added), and cells treated with fullerene monoadducts (no light) as the dark control. Survival fractions were routinely expressed as ratios of CFU of bacterial cells treated with light and fullerene monoadducts, or treated with fullerenes in the absence of light, to CFU of bacteria treated with neither.

MRSA = details: against MRSA
MRSA cells = experiment: Binding to MRSA cells by confocal microscopy fluorescence imaging; type: cell-based, Staphylococcus aureus; details: 405-nm irradiation, red emission 640-780 nm
A. baumannii (AF0004) = details: 12.5 μM
Excerpt: as §2, with “AF0004 was resistant to a panel of important antibiotics including amikacin, ampicillin, aztreonam, cefazolin, cefepime, cefoxitin, ceftazidime, ceftriaxone, cefuroxime, ciprofloxacin, gentamicin, imipenem, levofloxacin, meropenem, nitrofurantoin, tetracycline and trimethoprim-sulfamethoxazole.” left out
Light source: Light was delivered topically using a noncoherent light source (LumaCare, Newport Beach, CA) that provided the full spectrum of visible light (400 to 800 nm). […] The light power was routinely measured using a laser power meter (Fieldmate; Coherent, Portland, OR).
Antimicrobial photodynamic inactivation (aPDI) of bacteria: Bacterial suspensions were adjusted to 10^8 CFU/mL, inoculated to 96-well plates (200 μL/well), incubated with fullerenes at 6.25, 12.50, 18.75, and 25.00 μM concentrations for 1.0 h and then either left in dark or irradiated with 660 nm light at 115 J/cm^2. […] Survival fractions were routinely expressed as ratios of CFU of bacterial cells treated with light and fullerene monoadducts, or treated with fullerenes in the absence of light, to CFU of bacteria treated with neither.

E. fecium = details: 50 nM, 415 nm irradiation, VCM-resistant and sensitive strains
Procedure: as §1

For “3a-hydroxy-3b-aminoethylene-aminoPEGlycolated vancomycin-15b-methyl-13a,17c-di[N,N′,N,N,N,N-hexapropyl-panta(aminoethylene)]amide-mesochlorin [LC40e]”, the “photokilling efficacy on MRSA” value (MRSA (strain IQ0064); 10-20 μM, 405-nm irradiation, 20 J/cm^2) was 5.0 log10, the “CFU reduction (photokilling of MRSA)” value (MRSA (strain IQ0064); 10-20 μM, 660-nm light, 115 J/cm^2) was over 6.5 log10 CFU and the “light mediated killing of MRSA cells (qualitative)” value (MRSA (strain IQ0064); 405- and 660-nm photoexcitation, up to 20 μM) was “susceptible to light mediated killing”. For the same compound, the “additional increase in the inactivation of bacteria by the combination of antibiotics and aPDT” value (MRSA (strain IQ0064); combination versus antibiotic activity alone) was 3 log10 CFU, the “antibiotic activity, CFU killing without red-light irradiation” value (MRSA (strain IQ0064); without red-light irradiation, bacterium not given, MRSA implied) was 4 log10 CFU and the MIC (MRSA) was 2.0 µg/mL. For the same compound, the “red FL emission on pretreated MRSA cells (relative cell affinity)” value (MRSA cells) was “significantly enhanced”, the “dark toxicity to A. baumannii cells” value (A. baumannii (AF0004); no light) was “about 1.5 log10 CFU” and the “CFU reduction (inactivation of A. baumannii CFUs)” value (A. baumannii (AF0004); red light 660 nm, 115 J/cm^2) was over 6 log10 CFU.
In the case of “3a-hydroxy-3b-vancomycin-15b-methyl-17c-[N,N′,N,N,N,N-hexapropyl-penta(aminoethylene)]amide-[Zn^+2]mesopheophorbide [LC39]”, the aPDT effect (E. fecium) was “excellent aPDT effect”.
In the case of `CN[C@H](CC(C)C)C(=O)N[C@H]1C(=O)N[C@@H](CC(N)=O)C(=O)N[C@H]2C(=O)N[C@H]3C(=O)N[C@H](C(=O)N[C@H](C(=O)O)c4cc(O)cc(O)c4-c4cc3ccc4O)[C@H](O)c3ccc(c(Cl)c3)Oc3cc2cc(c3O[C@@H]2O[C@H](CO)[C@@H](O)[C@H](O)[C@H]2O[C@H]2C[C@](C)(N)[C@H](O)[C@H](C)O2)Oc2ccc(cc2Cl)[C@H]1O` [vancomycin, reference compound], the “effect on viability of MRSA cells” value (MRSA (strain IQ0064); equivalent dose, control, 660 nm and 405 nm (FIGS. 3Ca, 3Da)) was “negligible effect”.
